# Source: ChEMBL document CHEMBL1151148, “Antitumor agents, 112. Emarginatine B, a novel potent cytotoxic sesquiterpene pyridine alkaloid from Maytenus emarginata” (1990)
# Test system: KB
# Assay: Cytotoxicity against human KB cells
# Assay type: functional
# Details: read-out: ED50 (the source's name)
row,Structure (SMILES),EC50
1,CC(=O)OC[C@]12[C@H](OC(=O)c3ccccc3)[C@@H](OC(C)=O)[C@@H]3[C@@H](OC(C)=O)[C@@]14O[C@@]3(C)COC(=O)c1cccnc1[C@H](C)[C@H](C)C(=O)O[C@@H]([C@H](OC(=O)c1ccc(=O)n(C)c1)[C@@H]2OC(C)=O)[C@@]4(C)O [EMARGINATINE B],0.4 µg/mL
2,CC(=O)OC[C@]12[C@H](OC(C)=O)[C@H](OC(C)=O)[C@@H]3[C@@H](OC(C)=O)[C@@]14O[C@@]3(C)COC(=O)c1cccnc1[C@H](C)[C@H](C)C(=O)O[C@@H]([C@H](OC(=O)c1ccc(=O)n(C)c1)[C@@H]2OC(C)=O)[C@@]4(C)O [EMARGINATINE A],4 µg/mL
